From patent publication US20260167620A1, “MULTIFUNCTIONAL COMPOUND CAPABLE OF DEGRADING BTK KINASE, AND COMPOSITION AND USE” (HANGZHOU HEALZEN THERAPEUTICS CO., LTD., priority 2021, published 2026)

Key:
Assay type in all cases: cell-based
[1] = target: T1, BTK (Homo sapiens, UniProt Q06187); assay: BTK degradation activity test in Mino cells (Westernblot or Elisa); conditions: 24-72 h incubation
T1 construct: endogenous in cells; host or cells: Mino cells
Method: The Mino cell line cells are 0.5˜1 million/well in 6-well plates. The compounds are diluted to different concentrations, added to the plate, and after 24-72 h of incubation, the cells are collected. After the cells were lysed, the total protein concentration in each well was determined with a BCA kit. The amount of BTK is determined using the Westernblot or Elisa method.

[2] = test system: OCI-LY10 cells; assay: Inhibitory activity on OCI-LY10 cell proliferation (MTS); conditions: Homo sapiens, 72 h or 168 h
Method: (§1) The anti-tumor efficacy of the compounds was tested by measuring their inhibitory effects on OCI-LY10 and Mino cell proliferation. OCI-LY10 and Mino cells were cultured in RPM-1640 medium containing […] fetal calf serum. OCI-LY10 and Mino cells were digested, inoculated in a 96-well plate at a cell concentration of 10000 cells/well, and incubated overnight at 37° C., 5% CO2. Compounds of different concentrations (1000 nM, 4-fold dilution, 8 points) were added to the 96-well plate and incubated for 72 h or 168 h at 37° C. and […], and then 20 μL of MTS was added to each well. After incubation for 2 h, 25 μl of 10% SDS was added to each well to terminate the reaction. The absorbance at 490 nm and 650 nm were measured with a microplate reader. IC50 was calculated using GraphPad Prism 5.0.

[3] = test system: Mino cells; assay: Inhibitory activity on Mino cell proliferation (MTS); conditions: Homo sapiens, 72 h or 168 h
Method: as §1

T1 sequence (Q06187 whole entry): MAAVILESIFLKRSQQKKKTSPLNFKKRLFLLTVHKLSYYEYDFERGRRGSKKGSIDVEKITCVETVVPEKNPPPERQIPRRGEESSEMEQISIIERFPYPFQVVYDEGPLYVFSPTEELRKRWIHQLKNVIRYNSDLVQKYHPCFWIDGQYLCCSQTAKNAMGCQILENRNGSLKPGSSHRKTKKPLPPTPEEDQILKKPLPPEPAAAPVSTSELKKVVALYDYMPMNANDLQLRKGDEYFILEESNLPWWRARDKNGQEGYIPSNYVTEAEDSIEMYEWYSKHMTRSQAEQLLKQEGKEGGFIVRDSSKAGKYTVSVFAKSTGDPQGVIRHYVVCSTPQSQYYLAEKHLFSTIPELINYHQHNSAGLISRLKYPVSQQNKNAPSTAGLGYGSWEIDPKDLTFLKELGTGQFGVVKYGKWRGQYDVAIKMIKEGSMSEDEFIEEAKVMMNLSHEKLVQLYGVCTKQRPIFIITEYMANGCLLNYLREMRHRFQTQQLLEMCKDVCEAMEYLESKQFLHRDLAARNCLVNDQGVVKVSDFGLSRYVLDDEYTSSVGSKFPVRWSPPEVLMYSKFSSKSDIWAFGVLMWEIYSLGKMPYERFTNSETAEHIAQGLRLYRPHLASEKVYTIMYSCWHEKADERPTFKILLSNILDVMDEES

Compound | DC50 [1] [nM] | IC50 [2] [nM] | IC50 [3] [nM]
Cc1cc(N2CCN(CC3CCN(c4ccc(Nc5nc(N6CCCCC6)nnc5C(N)=O)cc4F)CC3)CC2)ccc1N1CCC(=O)NC1=O [Compound 076, 5-((4-(4-((4-(4-(2,4-dioxotetrahydropyrimidin-1(2H)-yl)-3-methylphenyl)piperazin-1-yl)methyl)piperidin-1-yl)-3-fluorophenyl)amino)-3-(piperidin-1-yl)-1,2,4-triazine-6-carboxamide] | < 10 | 1.09 | –
NC(=O)c1nnc(N2CCCCC2)nc1Nc1ccc(N2CCN(CC3CCN(c4ccc(N5CCC(=O)NC5=O)c(F)c4)CC3)CC2)c(F)c1 [Compound 078, 5-((4-(4-((1-(4-(2,4-dioxotetrahydropyrimidin-1(2H)-yl)-3-fluorophenyl)piperidin-4-yl)methyl)piperazin-1-yl)-3-fluorophenyl)amino)-3-(piperidin-1-yl)-1,2,4-triazine-6-carboxamide] | < 10 | 0.7 | –
NC(=O)c1nnc(N2CCCCC2)nc1Nc1ccc(N2CCN(CC3CCN(c4ccc(C(=O)NC5CCC(=O)NC5=O)c(F)c4)CC3)CC2)c(F)c1 (stereo not drawn) [Compound 083, 5-((4-(4-((1-(4-((2,6-dioxopiperidin-3-yl)carbamoyl)-3-fluorophenyl)piperidin-4-yl)methyl)piperazin-1-yl)-3-fluorophenyl)amino)-3-(piperidin-1-yl)-1,2,4-triazine-6-carboxamide] | < 10 | 1.24 | –
Cc1cc(N2CCC(=O)NC2=O)ccc1N1CCC(CN2CCN(c3ccc(Nc4nc(N5CCCCC5)nnc4C(N)=O)cc3F)CC2)CC1 [Compound 084, 5-((4-(4-((1-(4-(2,4-dioxotetrahydropyrimidin-1(2H)-yl)-2-methylphenyl)piperidin-4-yl)methyl)piperazin-1-yl)-3-fluorophenyl)amino)-3-(piperidin-1-yl)-1,2,4-triazine-6-carboxamide] | < 10 | – | 3.3
NC(=O)c1nnc(N2CCCCC2)nc1Nc1ccc(N2CCN(CC3CCN(c4ccc(N5CCC(=O)NC5=O)cc4F)CC3)CC2)c(F)c1 [Compound 086, 5-((4-(4-((1-(4-(2,4-dioxotetrahydropyrimidin-1(2H)-yl)-2-fluorophenyl)piperidin-4-yl)methyl)piperazin-1-yl)-3-fluorophenyl)amino)-3-(piperidin-1-yl)-1,2,4-triazine-6-carboxamide] | < 10 | 0.7 | –
NC(=O)c1nnc(N2CCCCC2)nc1Nc1ccc(N2CCN(CC3CCN(c4ccc(-c5ccc(=O)[nH]n5)cc4C(F)(F)F)CC3)CC2)c(F)c1 [Compound 087, 5-((3-fluoro-4-(4-((1-(4-(6-oxo-1,6-dihydropyridazin-3-yl)-2-(trifluoromethyl)phenyl)piperidin-4-yl)methyl)piperazin-1-yl)phenyl)amino)-3-(piperidin-1-yl)-1,2,4-triazine-6-carboxamide] | < 10 | – | 4.31
NC(=O)c1nnc(N2CCCCC2)nc1Nc1ccc(N2CCN(CC3CCN(c4ccc(NC5CCC(=O)NC5=O)c(F)c4)CC3)CC2)c(F)c1 (stereo not drawn) [Compound 088, 5-((4-(4-((1-(4-((2,6-dioxopiperidin-3-yl)amino)-3-fluorophenyl)piperidin-4-yl)methyl)piperazin-1-yl)-3-fluorophenyl)amino)-3-(piperidin-1-yl)-1,2,4-triazine-6-carboxamide] | < 10 | 0.66 | –
Cc1cc(N2CCC(CN3CCN(c4ccc(Nc5nc(N6CCOCC6)nnc5C(N)=O)cc4F)CC3)CC2)ccc1N1CCC(=O)NC1=O [Compound 098, 5-((4-(4-((1-(4-(2,4-dioxotetrahydropyrimidin-1(2H)-yl)-3-methylphenyl)piperidin-4-yl)methyl)piperazin-1-yl)-3-fluorophenyl)amino)-3-morpholino-1,2,4-triazine-6-carboxamide] | < 10 | – | 3.11

Second part, led by results:

DC50 [1] [nM] | IC50 [2] [nM] | Compound | IC50 [3] [nM]
< 10 | 0.18 | NC(=O)c1nnc(N2CCCCC2)nc1Nc1ccc(C2CCN(CC3CCN(c4ccc5c(c4)C(=O)N(C4CCC(=O)NC4=O)C5=O)C3)CC2)nn1 (stereo not drawn) [Compound 004, 5-((6-(1-((1-(2-(2,6-dioxopiperidin-3-yl)-1,3-dioxoisoindolin-5-yl)pyrrolidin-3-yl)methyl)piperidin-4-yl)pyridazin-3-yl)amino)-3-(piperidin-1-yl)-1,2,4-triazine-6-carboxamide] | 1.15
< 10 | 0.41 | NC(=O)c1nnc(N2CCCCC2)nc1Nc1cnc(C2CCN(CC3CCN(c4ccc5c(c4)C(=O)N(C4CCC(=O)NC4=O)C5=O)C3)CC2)nc1 (stereo not drawn) [Compound 005, 5-((2-(1-((1-(2-(2,6-dioxopiperidin-3-yl)-1,3-dioxoisoindolin-5-yl)pyrrolidin-3-yl)methyl)piperidin-4-yl)pyrimidin-5-yl)amino)-3-(piperidin-1-yl)-1,2,4-triazine-6-carboxamide] | 2.47
< 10 | – | Cn1c(=O)n(C2CCC(=O)NC2=O)c2ccc(N3CCC(CN4CCC(c5ccc(Nc6nc(N7CCCCC7)nnc6C(N)=O)cc5)CC4)C3)cc21 (stereo not drawn) [Compound 011, 5-((4-(1-((1-(1-(2,6-dioxopiperidin-3-yl)-3-methyl-2-oxo-2,3-dihydro-1H-benzo[d]imidazol-5-yl)pyrrolidin-3-yl)methyl)piperidin-4-yl)phenyl)amino)-3-(piperidin-1-yl)-1,2,4-triazine-6-carboxamide] | 4.2
< 10 | – | NC(=O)c1nnc(N2CCCCC2)nc1Nc1ccc(C2CCN(CC3CCN(c4ccc5c(=O)n(C6CCC(=O)NC6=O)ccc5c4)C3)CC2)cc1 (stereo not drawn) [Compound 012, 5-((4-(1-((1-(2-(2,6-dioxopiperidin-3-yl)-1-oxo-1,2-dihydroisoquinolin-6-yl)pyrrolidin-3-yl)methyl)piperidin-4-yl)phenyl)amino)-3-(piperidin-1-yl)-1,2,4-triazine-6-carboxamide] | 1.22
< 10 | – | NC(=O)c1nnc(N2CCCCC2)nc1Nc1ccc(C2CCN(CC3CCN(c4ccc5c(c4)CCN(C4CCC(=O)NC4=O)C5=O)C3)CC2)cc1 (stereo not drawn) [Compound 013, 5-((4-(1-((1-(2-(2,6-dioxopiperidin-3-yl)-1-oxo-1,2,3,4-tetrahydroisoquinolin-6-yl)pyrrolidin-3-yl)methyl)piperidin-4-yl)phenyl)amino)-3-(piperidin-1-yl)-1,2,4-triazine-6-carboxamide] | 3.37
< 10 | 0.67 | NC(=O)c1nnc(N2CCCCC2)nc1Nc1ccc(C2CCN(CC3CCN(c4ccc(NC5CCC(=O)NC5=O)cn4)C3)CC2)cc1 (stereo not drawn) [Compound 014, 5-((4-(1-((1-(5-((2,6-dioxopiperidin-3-yl)amino)pyridin-2-yl)pyrrolidin-3-yl)methyl)piperidin-4-yl)phenyl)amino)-3-(piperidin-1-yl)-1,2,4-triazine-6-carboxamide] | 4.14
< 10 | 1.1 | NC(=O)c1nnc(N2CCOCC2)nc1Nc1ccc(C2CCN(CC3CCN(c4ccc5c(c4)C(=O)N(C4CCC(=O)NC4=O)C5=O)C3)CC2)cc1 (stereo not drawn) [Compound 019, 5-((4-(1-((1-(2-(2,6-dioxopiperidin-3-yl)-1,3-dioxoisoindolin-5-yl)pyrrolidin-3-yl)methyl)piperidin-4-yl)phenyl)amino)-3-morpholino-1,2,4-triazine-6-carboxamide] | 2.13
< 10 | – | NC(=O)c1cnc(N2CCCCC2)nc1Nc1ccc(C2CCN(CC3CCN(c4ccc5c(c4)C(=O)N(C4CCC(=O)NC4=O)C5=O)C3)CC2)cc1 (stereo not drawn) [Compound 033, 4-((4-(1-((1-(2-(2,6-dioxopiperidin-3-yl)-1,3-dioxoisoindolin-5-yl)pyrrolidin-3-yl)methyl)piperidin-4-yl)phenyl)amino)-2-(piperidin-1-yl) pyrimidine-5-carboxamide] | 9.1
< 10 | 0.61 | NC(=O)c1nnc(N2CCCCC2)nc1Nc1ccc(N2CCC(CN3CCN(c4ccc(N5CCC(=O)NC5=O)cc4)CC3)CC2)nc1 [Compound 048, 5-((6-(4-((4-(4-(2,4-dioxotetrahydropyrimidin-1(2H)-yl)phenyl)piperazin-1-yl)methyl)piperidin-1-yl)pyridin-3-yl)amino)-3-(piperidin-1-yl)-1,2,4-triazine-6-carboxamide] | –
< 10 | – | NC(=O)c1nnc(N2CCCCC2)nc1Nc1ccc(N2CCC(CN3CCN(c4ccc(N5CCC(=O)NC5=O)cc4)CC3)CC2)c(F)c1 [Compound 050, 5-((4-(4-((4-(4-(2,4-dioxotetrahydropyrimidin-1(2H)-yl)phenyl)piperazin-1-yl)methyl)piperidin-1-yl)-3-fluorophenyl)amino)-3-(piperidin-1-yl)-1,2,4-triazine-6-carboxamide] | 6.05
< 10 | 1.73 | NC(=O)c1nnc(N2CCCCC2)nc1Nc1ccc(N2CCC(CN3CCN(c4ccc(C5CCC(=O)NC5=O)cn4)CC3)CC2)c(F)c1 (stereo not drawn) [Compound 053, 5-((4-(4-((4-(5-(2,6-dioxopiperidin-3-yl)pyridin-2-yl)piperazin-1-yl)methyl)piperidin-1-yl)-3-fluorophenyl)amino)-3-(piperidin-1-yl)-1,2,4-triazine-6-carboxamide] | –
